Columns and labels:
Assay in all cases: Ba/F3 drug screening, Cell Titer Glo, IC50 Mut/WT
Format in all cases: cell-based
EGFR Ex19del/T790M/L792H = molecular target: T1, EGFR Ex19del/T790M/L792H (Homo sapiens, UniProt P00533, DEL746-750/L792H/T790M); settings: T790M-like-3R, 72 hours
T1 construct: expressed in transfected cells; host or cells: Ba/F3

EGFR G719S T790M = molecular target: T2, EGFR G719S T790M (Homo sapiens, UniProt P00533, G719S/T790M); settings: T790M-like-3S, 72 hours
T2 construct: expressed in transfected cells; host or cells: Ba/F3

EGFR G719A T790M = molecular target: T3, EGFR G719A T790M (Homo sapiens, UniProt P00533, G719A/T790M); settings: T790M-like-3S, 72 hours
T3 construct: expressed in transfected cells; host or cells: Ba/F3
Protocol: (§1) Data represent the ratio of the IC50 value for a given TKI for cells with a T790M-like-3S EGFR mutation to the IC50 value for cells with wildtype EGFR.
(§2) Ba/F3 cell generation, drug screening, and IC50 approximations. Ba/F3 cells were obtained as a gift from Dr. Gordon Mills (MD Anderson Cancer Center), and maintained in RPMI (Sigma) containing 10% FBS, 1% penicillin/streptomycin, and 10 ng/ml recombinant mIL-3 (R&D Biosystems). To establish stable Ba/F3 cell lines, Ba/F3 cells were transduced with retroviruses containing mutant EGFR plasmids for 12-24 hours.
(§3) After 48-72 hours of transduction, 2 μg/ml puromycin (Invitrogen) was added to Ba/F3 cell lines in complete RPMI. To select for EGFR positive cell lines, cells were stained with PE-EGFR (Biolegend) and sorted by FACS. After sorting, EGFR positive cells were maintained in RPMI containing 10% FBS, 1% penicillin/streptomycin, and 1 ng/ml EGF to support cell viability. Drug screening was performed as previously described^41,42. Shortly, cells were plated in 384-well plates (Greiner Bio-One) at 2000-3000 cells per well in technical triplicate. Seven different concentrations of TKIs or DMSO vehicle were added to reach a final volume of 40 μL per well. After 72 hours, 11 μL of Cell Titer Glo (Promega) was added to each well. Plates were incubated for a minimum of 10 minutes, and bioluminescence was determined using a FLUOstar OPTIMA plate reader (BMG LABTECH). Raw bioluminescence values were normalized to DMSO control treated cells, and values were plotted in GraphPad Prism. […] Drug screens were performed in technical triplicate on each plate and either duplicate or triplicate biological replicates.

EGFR L861Q = molecular target: T4, EGFR L861Q (Homo sapiens, UniProt P00533, L861Q); settings: Classical-Like, 72 hours
T4 construct: expressed in transfected cells; host or cells: Ba/F3 cells, retroviral pBabe-Puro vector

EGFR T790M = molecular target: T5, EGFR T790M (Homo sapiens, UniProt P00533, T790M); settings: T790M-like-3S, 72 hours
T5 construct: expressed in transfected cells; host or cells: Ba/F3

EGFR N771dupN G724S = molecular target: T6, EGFR N771dupN G724S (Homo sapiens, UniProt P00533, DUP771-771/G724S); settings: Ex20, 72 hours
T6 construct: expressed in transfected cells; host or cells: Ba/F3 cells, retroviral pBabe-Puro vector (vector made by GeneScript from EGFR G724S, c.2313_2314insAAC)
Protocol: (§4) Data represent the ratio of the IC50 value for a given TKI for cells with an ex20ins EGFR mutation to the IC50 value for cells with wildtype EGFR.
as §2
(§5) After 48-72 hours of transduction, 2 μg/ml puromycin (Invitrogen) was added to Ba/F3 cell lines in complete RPMI. To select for EGFR positive cell lines, cells were stained with PE-EGFR (Biolegend) and sorted by FACS. After sorting, EGFR positive cells were maintained in RPMI containing 10% FBS, 1% penicillin/streptomycin, and 1 ng/ml EGF to support cell viability. Drug screening was performed as previously described^41,42. Shortly, cells were plated in 384-well plates (Greiner Bio-One) at 2000-3000 cells per well in technical triplicate. Seven different concentrations of TKIs or DMSO vehicle were added to reach a final volume of 40 μL per well. After 72 hours, 11 μL of Cell Titer Glo (Promega) was added to each well. Plates were incubated for a minimum of 10 minutes, and bioluminescence was determined using a FLUOstar OPTIMA plate reader (BMG LABTECH). Raw bioluminescence values were normalized to DMSO control treated cells, and values were plotted in GraphPad Prism. […] Drug screens were performed in technical triplicate on each plate and either duplicate or triplicate biological replicates. […] Statistical differences between groups were determined by ANOVA as described in the figure legends.

EGFR Ex19del L718Q = molecular target: T7, EGFR Ex19del L718Q (Homo sapiens, UniProt P00533, DEL746-750/L718Q); settings: Ba/F3 cells, EGFR Ex19del L718Q (PACC), Mut/WT
T7 construct: expressed in transfected cells; host or cells: Ba/F3

EGFR L747P = molecular target: T8, EGFR L747P (Homo sapiens, UniProt P00533, L747P); settings: Ba/F3 cells, EGFR L747P (PACC), Mut/WT
T8 construct: expressed in transfected cells; host or cells: Ba/F3

EGFR V769L = molecular target: T9, EGFR V769L (Homo sapiens, UniProt P00533, V769L); settings: Ba/F3 cells, EGFR V769L (PACC), Mut/WT
T9 construct: expressed in transfected cells; host or cells: Ba/F3

EGFR I740dupIPVAK = settings: Ba/F3 cells, EGFR I740dupIPVAK (PACC), Mut/WT
EGFR S768I/V769L = molecular target: T10, EGFR S768I/V769L (Homo sapiens, UniProt P00533, S768I/V769L); settings: Ba/F3 cells, EGFR S768I/V769L (PACC), Mut/WT
T10 construct: host or cells: Ba/F3

EGFR L858R/L718V = molecular target: T11, EGFR L858R/L718V (Homo sapiens, UniProt P00533, L718V/L858R); settings: Ba/F3 cells, EGFR L858R/L718V (PACC), Mut/WT
T11 construct: host or cells: Ba/F3

EGFR Ex19del T790M L718V = molecular target: T12, EGFR Ex19del T790M L718V (Homo sapiens, UniProt P00533, DEL746-750/L718V/T790M); settings: T790M-like-3S, 72 hours
T12 construct: expressed in transfected cells; host or cells: Ba/F3

EGFR N771dupN = molecular target: T13, EGFR N771dupN (Homo sapiens, UniProt P00533, DUP771-771); settings: Ex20, 72 hours
T13 construct: expressed in transfected cells; host or cells: Ba/F3 cells, retroviral pBabe-Puro vector
Protocol: as §4, §2, §5

EGFR V774M = molecular target: T14, EGFR V774M (Homo sapiens, UniProt P00533, V774M); settings: Ba/F3 cells, EGFR V774M (PACC), Mut/WT
T14 construct: host or cells: Ba/F3
Protocol: (§6) Data represent the ratio of the IC50 value for a given TKI for cells with a PACC EGFR mutation to the IC50 value for cells with wildtype EGFR.
as §2, §3

EGFR E709A = molecular target: T15, EGFR E709A (Homo sapiens, UniProt P00533, E709A); settings: Ba/F3 cells, EGFR E709A (PACC), Mut/WT
T15 construct: expressed in transfected cells; host or cells: Ba/F3

EGFR R776C = molecular target: T16, EGFR R776C (Homo sapiens, UniProt P00533, R776C); settings: Ba/F3 cells, EGFR R776C (PACC), Mut/WT
T16 construct: host or cells: Ba/F3
Protocol: as §6, §2, §3

EGFR L858R L718Q = molecular target: T17, EGFR L858R L718Q (Homo sapiens, UniProt P00533, L718Q/L858R); settings: Ba/F3 cells, EGFR L858R L718Q (PACC), Mut/WT
T17 construct: host or cells: Ba/F3
Protocol: as §6, §2, §3

EGFR G724S = molecular target: T18, EGFR G724S (Homo sapiens, UniProt P00533, G724S); settings: Ba/F3 cells, EGFR G724S (PACC), Mut/WT
T18 construct: expressed in transfected cells; host or cells: Ba/F3

EGFR S768I/T790M = molecular target: T19, EGFR S768I/T790M (Homo sapiens, UniProt P00533, S768I/T790M); settings: T790M-like-3S, 72 hours
T19 construct: expressed in transfected cells; host or cells: Ba/F3

EGFR S784F = molecular target: T20, EGFR S784F (Homo sapiens, UniProt P00533, S784F); settings: Classical-Like, 72 hours
T20 construct: expressed in transfected cells; host or cells: Ba/F3 cells, retroviral pBabe-Puro vector (vector made by GeneScript from EGFR WT)

EGFR E709A G719S = molecular target: T21, EGFR E709A G719S (Homo sapiens, UniProt P00533, E709A/G719S); settings: Ba/F3 cells, EGFR E709A G719S (PACC), Mut/WT
T21 construct: expressed in transfected cells; host or cells: Ba/F3
Protocol: as §6, §2, §3

EGFR L858R T790M L792H = molecular target: T22, EGFR L858R T790M L792H (Homo sapiens, UniProt P00533, L792H/L858R/T790M); settings: T790M-like-3S, 72 hours
T22 construct: expressed in transfected cells; host or cells: Ba/F3
Protocol: as §1, §2, §3

EGFR L858R/T790M = molecular target: T23, EGFR L858R/T790M (Homo sapiens, UniProt P00533, L858R/T790M); settings: T790M-like-3S, 72 hours
T23 construct: expressed in transfected cells; host or cells: Ba/F3
Protocol: as §1, §2, §3

EGFR S768I V774M = molecular target: T24, EGFR S768I V774M (Homo sapiens, UniProt P00533, S768I/V774M); settings: Ba/F3 cells, EGFR S768I V774M (PACC), Mut/WT
T24 construct: host or cells: Ba/F3

EGFR S768I = molecular target: T25, EGFR S768I (Homo sapiens, UniProt P00533, S768I); settings: Ba/F3 cells, EGFR S768I (PACC), Mut/WT
T25 construct: expressed in transfected cells; host or cells: Ba/F3

EGFR S811F = molecular target: T26, EGFR S811F (Homo sapiens, UniProt P00533, S811F); settings: Classical-Like, 72 hours
T26 construct: expressed in transfected cells; host or cells: Ba/F3 cells, retroviral pBabe-Puro vector (vector made by GeneScript from EGFR WT)

ratio of IC50 for cells with mutant EGFR to IC50 for cells with wildtype EGFR (Mut/WT) (EGFR Ex19del/T790M/L792H): 1.486
ratio of IC50 for cells with mutant EGFR to IC50 for cells with wildtype EGFR (Mut/WT) (EGFR G719S T790M): 0.1839
ratio of IC50 for cells with mutant EGFR to IC50 for cells with wildtype EGFR (Mut/WT) (EGFR G719A T790M): 0.1667
ratio of IC50 for cells with mutant EGFR to IC50 for cells with wildtype EGFR (Mut/WT) (EGFR L861Q): 0.5871
ratio of IC50 for cells with mutant EGFR to IC50 for cells with wildtype EGFR (Mut/WT) (EGFR T790M): 1.125
ratio of IC50 for cells with mutant EGFR to IC50 for cells with wildtype EGFR (Mut/WT) (EGFR N771dupN G724S): 1.826
ratio of the IC50 value for cells with a PACC EGFR mutation to the IC50 value for cells with wildtype EGFR (EGFR Ex19del L718Q): 1.487
ratio of the IC50 value for cells with a PACC EGFR mutation to the IC50 value for cells with wildtype EGFR (EGFR L747P): 3.59
ratio of the IC50 value for cells with a PACC EGFR mutation to the IC50 value for cells with wildtype EGFR (EGFR V769L): 1.367
ratio of the IC50 value for cells with a PACC EGFR mutation to the IC50 value for cells with wildtype EGFR (EGFR I740dupIPVAK): 2.234
ratio of the IC50 value for cells with a PACC EGFR mutation to the IC50 value for cells with wildtype EGFR (EGFR S768I/V769L): 0.599
ratio of the IC50 value for cells with a PACC EGFR mutation to the IC50 value for cells with wildtype EGFR (EGFR L858R/L718V): 1.64
ratio of IC50 for cells with mutant EGFR to IC50 for cells with wildtype EGFR (Mut/WT) (EGFR Ex19del T790M L718V): 0.7041
ratio of IC50 for cells with mutant EGFR to IC50 for cells with wildtype EGFR (Mut/WT) (EGFR N771dupN): 0.6044
ratio of the IC50 value for cells with a PACC EGFR mutation to the IC50 value for cells with wildtype EGFR (EGFR V774M): 0.5635
ratio of the IC50 value for cells with a PACC EGFR mutation to the IC50 value for cells with wildtype EGFR (EGFR E709A): 0.219
ratio of the IC50 value for cells with a PACC EGFR mutation to the IC50 value for cells with wildtype EGFR (EGFR R776C): 0.1019
ratio of the IC50 value for cells with a PACC EGFR mutation to the IC50 value for cells with wildtype EGFR (EGFR L858R L718Q): 1.635
ratio of the IC50 value for cells with a PACC EGFR mutation to the IC50 value for cells with wildtype EGFR (EGFR G724S): 36.15
ratio of IC50 for cells with mutant EGFR to IC50 for cells with wildtype EGFR (Mut/WT) (EGFR S768I/T790M): 1.619
ratio of IC50 for cells with mutant EGFR to IC50 for cells with wildtype EGFR (Mut/WT) (EGFR S784F): 0.01428
ratio of the IC50 value for cells with a PACC EGFR mutation to the IC50 value for cells with wildtype EGFR (EGFR E709A G719S): 0.797
ratio of IC50 for cells with mutant EGFR to IC50 for cells with wildtype EGFR (Mut/WT) (EGFR L858R T790M L792H): 0.5871
ratio of IC50 for cells with mutant EGFR to IC50 for cells with wildtype EGFR (Mut/WT) (EGFR L858R/T790M): 0.1777
ratio of the IC50 value for cells with a PACC EGFR mutation to the IC50 value for cells with wildtype EGFR (EGFR S768I V774M): 0.5809
ratio of the IC50 value for cells with a PACC EGFR mutation to the IC50 value for cells with wildtype EGFR (EGFR S768I): 1.361
ratio of IC50 for cells with mutant EGFR to IC50 for cells with wildtype EGFR (Mut/WT) (EGFR S811F): 0.002871
Structure (SMILES): C=CC(=O)Nc1cc(Nc2nccc(-c3c[nH]c4ccccc34)n2)c(OC)cc1N(C)CCN(C)C [AZ5104]
